{"source": "patent US20150057226A1", "about": "“METHOD FOR TREATMENT OF LABOR ARREST” (DILAFOR AB, priority 2012, published 2015)", "key": {"[1]": {"tested_on": "Human uterine smooth muscle cells", "assay": "Intracellular Ca2+ with Fluo-4, live cell confocal imaging", "assay_type": "cell-based", "protocol": "Human uterine smooth muscle cells were established in a culture. Intracellular Ca^2+ was measured with the calcium indicator dye Fluo-4 and live cell imaging with confocal microscopy was established for the cells.\nIt was further investigated if the main transport mechanism of inositol-3 phosphate (IP3) stimulated Ca^2+ transport of the endoplasmatic reticulum. To study this pathway, 2-Aminoethoxydiphenyl borate (2-APB) was tested on Ca^2+ after 30 min of incubation with a concentration of 100 μM.\nTo further characterize the interaction between oxytocin and DF01 the effect of the oxytocin receptor antagonist Atosiban was used and the cells subjected to the DF01 enhanced oxytocin effect on Ca^2+ transport."}, "[2]": {"conditions": "subcutaneous; species not stated; cited from earlier work"}}, "note": "Positions of bridges follow the written chain, without caps; N, C: chain ends. Non-standard residues stand in square brackets, D forms with d. Residues, ends and D or L forms follow the SMILES beside them. Orn = NCCC[C@H](N)C(=O)O; Mpa = O=C(O)CCS"}
{"molecule": "NCCOB(c1ccccc1)c1ccccc1", "note": "[2-APB, 2-Aminoethoxydiphenyl borate]", "values": [{"measurement": "effect on oxytocin and oxytocin/DF01 stimulated Ca2+-transport", "setting": "[1]; 100 μM, after 30 min of incubation", "value": "decreased strongly"}]}
{"molecule": "CCOc1ccc(C[C@H]2NC(=O)CCSSC[C@@H](C(=O)N3CCC[C@H]3C(=O)N[C@@H](CCCN)C(=O)NCC(N)=O)NC(=O)[C@H](CC(N)=O)NC(=O)[C@H]([C@@H](C)O)NC(=O)[C@H]([C@@H](C)CC)NC2=O)cc1", "note": "[Atosiban] ([Mpa][dY](Et)ITNCP[Orn]G-NH2; disulfide 1-6)", "values": [{"measurement": "effect on oxytocin and oxytocin/DF01 effect on Ca2+ transport", "setting": "[1]; 10^−6 M", "value": "clearly inhibited"}]}
{"molecule": "CC[C@H](C)[C@@H]1NC(=O)[C@H](Cc2ccc(O)cc2)NC(=O)[C@@H](N)CSSC[C@@H](C(=O)N2CCC[C@H]2C(=O)N[C@@H](CC(C)C)C(=O)NCC(N)=O)NC(=O)[C@H](CC(N)=O)NC(=O)[C@H](CCC(N)=O)NC1=O", "note": "[oxytocin]", "values": [{"measurement": "Ca2+-influx to the cytosol", "setting": "[1]; cells treated with oxytocin", "value": "demonstrated"}, {"measurement": "oxytocin concentration giving maximum effect on Ca2+-influx", "setting": "[1]; dose-dependent effect", "value": 0.05, "unit": "IU/ml"}]}
{"molecule": "heparin", "values": [{"measurement": "corresponding bioavailability", "setting": "[2]", "value": "about 10%"}]}
